# Measured values published in publication PMC12195967, “Cobalt(II) Complexes of 4′–Nitro–Fenamic Acid: Characterization and Biological Evaluation” (Molecules, 2025).
# Read-outs that look alike come from different tables or passages of the source.
# Assays:
# [1] = system: supercoiled circular pBR322 plasmid DNA; experiment: Cleavage and photocleavage of plasmid DNA (gel electrophoresis); type: biochemical; conditions: compound 500 μM
# Experimental: The cleavage of pBR322 plasmid DNA was evaluated both in the presence and absence of irradiation in order to further explore the interaction of the synthesized compounds with DNA and their possible biological efficacy. […] Following incubation of the samples at 37 °C, the impact of the compounds on pDNA was assessed using gel electrophoresis on 1% agarose gels stained with EB. Irradiation at 312 nm (UVB for 30 min), at 365 nm (UVA, for 120 min) or visible light (for 120 min) was also applied to further investigate the possibility of photocleavage activity of the compounds. […] The extent of pDNA damage from each compound was assessed by calculating the percentage of ss% and ds% using Equations (S4) and (S5).
# S3.4 EB−displacement studies
# The competition of the compounds with EB was investigated by fluorescence emission spectroscopy to examine whether the compounds can displace EB from its DNA−EB adduct. […] The solutions were excited at 540 nm and the emission was monitored from 550−700 nm with λmax = 592−594 nm and the effect of the addition of the compounds to the CT−DNA EB solution was recorded. […]
# fluorescence emission bands at room temperature in solution or in the presence of CT DNA or EB under the same experimental conditions (λexcitation = 540 nm); therefore, the observed quenching of the EB−DNA solution may be attributed to the displacement of EB from its […]
# [2] = system: X. campestris, E. coli, B. subtilis and S. aureus; experiment: Antibacterial activity, MIC summarised over the bacteria tested; type: cell-based; conditions: read-out: MIC values against the bacteria tested
# Experimental: buffer (50 mM, pH 7.4). The absorbance was measured at 230 nm after 10 min. The antioxidant activity (reduction of H2O2) of the compounds was expressed as the percentage decrease of the initial H2O2 solution (H2O2%). L−ascorbic acid (or vitamin C) was used as a […]
# S2 Antibacterial Activity studies
# The antibacterial activity of the compounds was evaluated by determining their respective MIC values towards two Gram–(–) (Escherichia coli XL1 (E. coli) and Xanthomonas campestris ATCC 1395 (X. campestris)) and two Gram–(+) (Staphylococcus aureus ATCC 29213 (S. aureus) and Bacillus subtilis ATCC 6633 (B. subtilis)) bacterial species. Cultures of these microbial strains were grown on a rich selective agar medium and stored at 4°C. The selective media used were Nutrient Agar or Broth for B. subtilis and S. aureus, Yeast Mold Agar or Broth for X. campestris and Luria Agar or Broth for E. coli. Cells picked from the surface of the stored cultures were used to initiate liquid pre–cultures of the same selective medium at an initial turbidity of roughly 1 McFarland unit.
# Pre–cultures were incubated for 24 h in a rotary shaking incubator and subsequently […]
# progressive double dilution.
Compound,"pDNA damage ([1]; UVB irradiation 312 nm, 30 min) [%]",MIC [2] [µM],MIC ([2]; summary over the four strains) [µg/mL],"total pDNA damage ([1]; dark, 150 min) [%]"
"O=C([O-])c1ccccc1Nc1ccc([N+](=O)[O-])cc1.O=C([O-])c1ccccc1Nc1ccc([N+](=O)[O-])cc1.[Co+2].c1cnc2c(c1)ccc1cccnc12 [Complex 3, [Co(4′–NO2–fen)2(phen)]]",89,–,–,–
"O=C(O)c1ccccc1Nc1ccc([N+](=O)[O-])cc1 [4′–NO2–fenH, 4′–nitrofenamic acid]",–,48 to 97,12.5 to 25,57
